What follows are compounds tested against IRE1α (Homo sapiens (Human), UniProt O75460, D688N) (assay: IRE1α TR-FRET competition binding assay (IRE1α HTRF)). Conditions: TR-FRET competition binding to kinase domain of IRE1α.
Outline: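 Kinase domain (0.25 nM) pre-bound to 2 nM Eu anti-His antibody for 1 h at 4° C in HEPES pH 7.5/MgCl2/Brij 35/DTT/gamma globulin buffer, then mixed with compounds and 2 nM Alexa 647 ATP-competitive probe. 1 h at room temperature; probe displacement read as TR-FRET (Ex 347 nm, Em 665/615 nm).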

Chain of IRE1α (O75460 547-977 D688N): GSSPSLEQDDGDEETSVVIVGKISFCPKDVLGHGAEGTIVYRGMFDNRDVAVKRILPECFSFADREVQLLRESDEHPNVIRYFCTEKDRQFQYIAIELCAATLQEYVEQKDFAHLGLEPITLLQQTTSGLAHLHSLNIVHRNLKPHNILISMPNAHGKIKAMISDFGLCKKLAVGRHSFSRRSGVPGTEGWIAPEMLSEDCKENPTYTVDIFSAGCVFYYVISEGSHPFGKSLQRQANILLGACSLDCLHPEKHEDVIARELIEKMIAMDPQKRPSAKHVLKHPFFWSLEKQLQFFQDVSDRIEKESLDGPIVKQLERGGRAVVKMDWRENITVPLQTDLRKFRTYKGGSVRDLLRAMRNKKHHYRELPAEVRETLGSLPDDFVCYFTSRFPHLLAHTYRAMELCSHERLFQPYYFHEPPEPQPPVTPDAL

Row | IC50 | Compound
1 | 0.1 nM | CC(C)n1c(=O)c(-c2ccc(NS(=O)(=O)CC3CCCC3)c(F)c2)nc2cnc(N[C@H]3CC[C@H](N(C)C)CC3)nc21 [Example 267, 1-Cyclopentyl-N-[4-[2-[[4-(dimethylamino)cyclohexyl]amino]-8-isopropyl-7-oxo-pteridin-6-yl]-2-fluoro-phenyl]methanesulfonamide]
2 | 0.1 nM | CC(C)n1c(=O)c(-c2ccc(NS(=O)(=O)CC3Cc4ccccc4C3)c(F)c2)nc2cnc(N[C@H]3CC[C@H](N(C)C)CC3)nc21 [Example 268, N-[4-[2-[[4-(Dimethylamino)cyclohexyl]amino]-8-isopropyl-7-oxo-pteridin-6-yl]-2-fluoro-phenyl]-1-indan-2-yl-methanesulfonamide]
3 | 0.2 nM | CC(C)n1c(=O)c(-c2ccc(NS(=O)(=O)CC3CCCCC3)c(F)c2)nc2cnc(N[C@H]3CC[C@H](N(C)C)CC3)nc21 [Example 269, 1-Cyclohexyl-N-[4-[2-[[4-(dimethylamino)cyclohexyl]amino]-8-isopropyl-7-oxo-pteridin-6-yl]-2-fluoro-phenyl]methanesulfonamide]
4 | 0.3 nM | CC(C)n1c(=O)c(-c2ccc(NS(=O)(=O)CC34CCC(CC3)C4)c(F)c2)nc2cnc(N[C@H]3CC[C@H](N(C)C)CC3)nc21 [Example 270, N-[4-[2-[[4-(Dimethylamino)cyclohexyl]amino]-8-isopropyl-7-oxo-pteridin-6-yl]-2-fluoro-phenyl]-1-norbornan-1-yl-methanesulfonamide]
5 | 0.2 nM | CC(C)n1c(=O)c(-c2ccc(NS(=O)(=O)CC3CCC(F)(F)CC3)c(F)c2)nc2cnc(N[C@H]3CC[C@H](N(C)C)CC3)nc21 [Example 271, 1-(4,4-Difluorocyclohexyl)-N-[4-[2-[[4-(dimethylamino)cyclohexyl]amino]-8-isopropyl-7-oxo-pteridin-6-yl]-2-fluoro-phenyl]methanesulfonamide]
6 | 0.2 nM | CC(C)n1c(=O)c(-c2ccc(NS(=O)(=O)[C@@H]3C[C@H]3c3ccccc3)c(F)c2)nc2cnc(N[C@H]3CC[C@H](N(C)C)CC3)nc21 [Example 274, (1R,2S)—N-(4-(2-(((1r,4r)-4-(Dimethylamino)cyclohexyl)amino)-8-isopropyl-7-oxo-7,8-dihydropteridin-6-yl)-2-fluorophenyl)-2-phenylcyclopropane-1-sulfonamide]
7 | 0.4 nM | CC(C)n1c(=O)c(-c2ccc(NS(=O)(=O)C3C4CCCCC43)c(F)c2)nc2cnc(N[C@H]3CC[C@H](N(C)C)CC3)nc21 (stereo partly drawn) [Example 275, N-[4-[2-[[4-(Dimethylamino)cyclohexyl]amino]-8-isopropyl-7-oxo-pteridin-6-yl]-2-fluoro-phenyl]norcarane-7-sulfonamide]
8 | 0.9 nM | CC(C)n1c(=O)c(-c2ccc(NS(=O)(=O)C3CCC3)c(F)c2)nc2cnc(N[C@H]3CC[C@H](N(C)C)CC3)nc21 [Example 276, N-[4-[2-[[4-(Dimethylamino)cyclohexyl]amino]-8-isopropyl-7-oxo-pteridin-6-yl]-2-fluoro-phenyl]cyclobutanesulfonamide]
9 | 0.2 nM | CC(C)n1c(=O)c(-c2ccc(NS(=O)(=O)C3CC4(CCC4)C3)c(F)c2)nc2cnc(N[C@H]3CC[C@H](N(C)C)CC3)nc21 [Example 277, N-[4-[2-[[4-(Dimethylamino)cyclohexyl]amino]-8-isopropyl-7-oxo-pteridin-6-yl]-2-fluoro-phenyl]spiro[3.3]heptane-2-sulfonamide]
10 | 0.2 nM | CC(C)n1c(=O)c(-c2ccc(NS(=O)(=O)CC3CCC3)c(F)c2)nc2cnc(N[C@H]3CC[C@H](N(C)C)CC3)nc21 [Example 278, 1-Cyclobutyl-N-[4-[2-[[4-(dimethylamino)cyclohexyl]amino]-8-isopropyl-7-oxo-pteridin-6-yl]-2-fluoro-phenyl]methanesulfonamide]
11 | 0.3 nM | CC(C)n1c(=O)c(-c2ccc(NS(=O)(=O)CC3CC(F)(F)C3)c(F)c2)nc2cnc(N[C@H]3CC[C@H](N(C)C)CC3)nc21 [Example 279, 1-(3,3-Difluorocyclobutyl)-N-[4-[2-[[4-(dimethylamino)cyclohexyl]amino]-8-isopropyl-7-oxo-pteridin-6-yl]-2-fluoro-phenyl]methanesulfonamide]
12 | 0.2 nM | CC(C)n1c(=O)c(-c2ccc(NS(=O)(=O)C3CCC(F)(F)CC3)c(F)c2)nc2cnc(N[C@H]3CC[C@H](N(C)C)CC3)nc21 [Example 280, N-[4-[2-[[4-(Dimethylamino)cyclohexyl]amino]-8-isopropyl-7-oxo-pteridin-6-yl]-2-fluoro-phenyl]-4,4-difluoro-cyclohexanesulfonamide]
13 | 0.5 nM | CC(C)n1c(=O)c(-c2ccc(NS(=O)(=O)C3CC4CCC3C4)c(F)c2)nc2cnc(N[C@H]3CC[C@H](N(C)C)CC3)nc21 (stereo partly drawn) [Example 281, N-(4-(2-(((1r, 4r)-4-(dimethylamino)cyclohexyl)amino)-8-isopropyl-7-oxo-7,8-dihydropteridin-6-yl)-2-fluorophenyl)bicyclo[2.2.1]heptane-2-sulfonamide]

Row | Compound | IC50
14 | N-(2,3,6-trifluoro-4-(8-isopropyl-2-((4-((2-methoxyethyl)(methyl)amino)cyclohexyl)amino)-7-oxo-7,8-dihydropyrido[2,3-d]pyrimidin-6-yl)phenyl)propane-1-sulfonamide [Compound 101A] | 0.35 nM
15 | N-(2,3,6-trifluoro-4-(8-isopropyl-2-((4-((2-methoxyethyl)(methyl)amino)cyclohexyl)amino)-7-oxo-7,8-dihydropyrido[2,3-d]pyrimidin-6-yl)phenyl)propane-1-sulfonamide [Compound 101B] | 120 nM
